The test system of one assay is retinal ganglion cells. Briefly: Test Example 5: regeneration induction of mouse retinal neurons by eye drop in high intraocular pressure glaucoma model. The format is in vivo. As to conditions: 100 μM eye drops to both eyes three times a day; 10 days to 1 month; vs control. The procedure: High intraocular glaucoma model mouse (transgenic lines specifically expressing green fluorescent protein (GFP) in retinal ganglion cells)
To an adult of a high intraocular pressure glaucoma model mouse, a solution prepared by dissolving 100 μM of the test compound in 1% methyl cellulose/physiological saline was administered by instillation to both eyes at […] per a time three times a day.
As a control experiment (control), an experiment of instilling 1% methyl cellulose/physiological saline containing no test compound was also performed.

The subject of assay [1] is T-cell type acute lymphocytic leukemia model. The experiment in a line: Test Example 10: verification of anticancer effect in T-cell type acute lymphocytic leukemia model. The assay is classed as in vivo, zebrafish. On the procedure: T-cell type acute lymphocytic leukemia model specifically expressing GFP in vascular endothelial cells
A liquid agent prepared by adding a compound to E3 Ringer to adjust to 100 μM was microscopically injected into the body ventral main vessel of an embryo of a T cell-type acute lymphatic leukemia model individual 24 hours after fertilization. E3 Ringer was similarly microscopically injected as a control. At the time of microinjection, embryos were held on the body side up in a 3% methylcellulose/E3 Ringer/0.02% tricaine solution on a glass slide, and then a glass capillary was inserted into an abdominal main vessel running in the head-to-tail direction at the boundary between the body wall and egg yolk. Then, a nitrogen gas pressure (15 picosiemens) was applied for 30 to 45 milliseconds, and the mixture was injected into the blood vessel. At this time, 0.025% (final concentration) phenol red was mixed as a tracer of the injection solution. The amount to be injected was adjusted by applying gas pressure in a pulsed manner until a large blood vessel of the whole body became uniform and thin red due to blood flow. […]
In addition, survival rates of drug-injected individuals and control individuals were counted. […]

For `CNS(=O)(=O)c1ccccc1Nc1nc(Nc2ccc(N3CCN(C)CC3)cc2OC)ncc1Cl` [Compound 7, 2-[[5-Chloro-2-[2-methoxy-4-(4-methylpiperazin-1-yl)anilino]pyrimidin-4-yl]amino]-N-methylbenzenesulfonamide], the “amplification of retinal ganglion cells” value in the assay with retinal ganglion cells is on record as “amplification of retinal ganglion cells was remarkably observed”. Moreover, the “thickening and tumorigenesis of vascular endothelium” value in assay [1] (100 μM injected into ventral main vessel at 24, 36 and 48 h after fertilization, observed at 56 h, vs control) was “thickening and tumorigenesis of the endothelium were observed”. For the same compound, in assay [1] (leukemia model individuals injected with 100 μM, three tests, control 22.4%±4.56), the “survival rate on Day 28” value is given as 55.9%±6.07.

The record behind these values is patent US20230134859A1, “METHOD FOR SCREENING FOR, METHOD FOR PRODUCING, AND METHOD FOR DESIGNING DRUG ACTIVE INGREDIENTS” (SKY PHARMA CO., LTD., priority 2020, published 2023).
